{"source": "patent US9732093B2", "about": "“FLAP modulators” (JANSSEN PHARMACEUTICA NV, priority 2013, dated 2017)", "note": "pIC50, pKi: −log10 of the molar value. Structures can show the parent of a compound that is named as a salt."}
{"biological_target": "human FLAP (Homo sapiens (Human), UniProt P20292)", "sequence (P20292 whole entry)": "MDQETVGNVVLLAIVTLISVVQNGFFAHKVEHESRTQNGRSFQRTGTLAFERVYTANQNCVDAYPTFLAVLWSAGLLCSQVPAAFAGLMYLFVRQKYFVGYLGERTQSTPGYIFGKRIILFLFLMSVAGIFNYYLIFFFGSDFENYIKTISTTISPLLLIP", "test": "FLAP binding assay (HTRF format)", "conditions": "human FLAP wild type membranes, HTRF format; Table 6 (additional runs)", "protocol": "(§1) The ability of the compounds of the present invention to treat a FLAP-mediated disease and/or disorder, or associated symptoms or complications thereof, was determined using the following procedures. Binding assay data represent the average value obtained from two different assay plates, with samples run in duplicate on each plate. Human whole blood assay data represent a single replicate on an assay plate using whole blood from at least one healthy donor.\nData are expressed as a HTRF ratio."}
{"molecule": "Nc1cnc(-c2ccc(C3CCC3)c(Oc3ccc(C(F)(F)F)cn3)c2F)cn1", "note": "[Example 113, 5-(4-Cyclobutyl-2-fluoro-3-{[5-(trifluoromethyl)pyridin-2-yl]oxy}phenyl)pyrazin-2-amine]", "pKi": 7.51}
{"molecule": "Nc1cnc(-c2ccc(C3CCC3)c(Oc3ccc(S(F)(F)(F)(F)F)cc3)c2F)cn1", "note": "[Example 115, 5-{4-Cyclobutyl-2-fluoro-3-[4-(pentafluoro-lambda˜6˜-sulfanyl)phenoxy]phenyl}pyrazin-2-amine]", "pKi": 7.27}
{"molecule": "Nc1cnc(-c2ccc(C3CCC3)c(Oc3nccc(N)n3)c2F)cn1", "note": "[Example 119, 2-[3-(5-Aminopyrazin-2-yl)-6-cyclobutyl-2-fluorophenoxy]pyrimidin-4-amine]", "pKi": 8.18}
{"molecule": "Nc1cnc(-c2ccc(C3CCC3)c(Oc3ncccc3C(F)(F)F)c2F)cn1", "note": "[Example 121, 5-(4-Cyclobutyl-2-fluoro-3-{[3-(trifluoromethyl)pyridin-2-yl]oxy}phenyl)pyrazin-2-amine]", "pKi": 8.14}
{"molecule": "Nc1cnc(-c2ccc(C3CCC3)c(Oc3ncccc3Cl)c2F)cn1", "note": "[Example 122]", "pKi": 8.43}
{"molecule": "Nc1cnc(-c2ccc(C3CCC3)c(Oc3ccnc(C(F)(F)F)n3)c2F)cn1", "note": "[Example 124, 5-(4-Cyclobutyl-2-fluoro-3-{[2-(trifluoromethyl)pyrimidin-4-yl]oxy}phenyl)pyrazin-2-amine]", "pKi": 8.55}
{"molecule": "Cc1nccc(Oc2c(C3CCC3)ccc(-c3cnc(N)cn3)c2F)n1", "note": "[Example 134, 5-{4-Cyclobutyl-2-fluoro-3-[(2-methylpyrimidin-4-yl)oxy]phenyl}pyrazin-2-amine]", "pKi": 8.34}
{"molecule": "Nc1cnc(-c2ccc(C3CCC3)c(Oc3ccnc(Cl)n3)c2F)cn1", "note": "[Example 137, 5-{3-[(2-Chloropyrimidin-4-yl)oxy]-4-cyclobutyl-2-fluorophenyl}pyrazin-2-amine]", "pKi": 8.37}
{"molecule": "Nc1cnc(-c2ccc(C3CCC3)c(Oc3cc(C4CC4)ncn3)c2F)cn1", "note": "[Example 141, 5-{4-Cyclobutyl-3-[(6-cyclopropylpyrimidin-4-yl)oxy]-2-fluorophenyl}pyrazin-2-amine]", "pKi": 8.26}
{"molecule": "Nc1cnc(-c2ccc(C3CCC3)c(Oc3ccc(C(=O)O)cn3)c2F)cn1", "note": "[Example 154, 6-[3-(5-Aminopyrazin-2-yl)-6-cyclobutyl-2-fluorophenoxy]pyridine-3-carboxylic acid]", "pKi": 7.75}
{"molecule": "N#Cc1nc(N)cnc1-c1ccc(C2CCC2)c(OCc2cccc(C(=O)O)c2)c1F", "note": "[Example 174, 3-{[3-(5-Amino-3-cyanopyrazin-2-yl)-6-cyclobutyl-2-fluorophenoxy]methyl}benzoic acid]", "pKi": 8.41}
{"molecule": "COc1cc(Oc2c(C(C)(C)C)ccc(-c3cnc(N)cn3)c2F)ncn1", "note": "[Example 204, 5-{4-tert-Butyl-2-fluor-3-[(6-methoxypyrimidin-4-yl)oxy]phenyl}pyrazin-2-amine]", "pKi": 8.07}
{"molecule": "CC(C)(C)c1ccc(-c2cnc(N)cn2)cc1OCc1ccccc1", "note": "[Example 215, 5-[3-(Benzyloxy)-4-tert-butylphenyl]pyrazin-2-amine]", "pKi": 6.15}
{"molecule": "Nc1cnc(-c2ccc(Cl)c(OCc3ccccc3)c2F)cn1", "note": "[Example 216, 5-[3-(Benzyloxy)-4-chloro-2-fluorophenyl]pyrazin-2-amine]", "pKi": 6.15}
{"molecule": "Nc1cnc(-c2ccc(C3CCC3)c(OCc3ccccc3)c2)cn1", "note": "[Example 217, 5-[3-(Benzyloxy)-4-cyclobutylphenyl]pyrazin-2-amine]", "pKi": 5.98}
{"molecule": "CC(C)(C)OC(=O)N1CCCC(COc2c(C3CCC3)ccc(-c3cnc(N)cn3)c2F)C1", "note": "(stereo not drawn) [Example 249, tert-Butyl 3-((3-(5-aminopyrazin-2-yl)-6-cyclobutyl-2-fluorophenoxy)methyl)piperidine-1-carboxylate]", "pKi": 6.55}
{"molecule": "CC(C)CNc1nccc(Oc2c(C3CCC3)ccc(-c3cnc(N)cn3)c2F)n1", "note": "[Example 261, 4-(3-(5-Aminopyrazin-2-yl)-6-cyclobutyl-2-fluorophenoxy)-N-isobutylpyrimidin-2-amine trifluoroacetic acid salt]", "pKi": 8.66}
{"molecule": "Nc1cnc(-c2ccc(C3CCC3)c(OCC3CCOCC3)c2F)cn1", "note": "[Example 264, 5-[4-Cyclobutyl-2-fluoro-3-(tetrahydro-2H-pyran-4-ylmethoxy)phenyl]pyrazin-2-amine]", "pKi": 6.99}
{"molecule": "Nc1cnc(-c2ccc(C3CCC3)c(OCC3CCNCC3)c2F)cn1", "note": "[Example 298, 5-[4-Cyclobutyl-2-fluoro-3-(piperidin-4-ylmethoxy)phenyl]pyrazin-2-amine hydrogen chloride salt]", "pKi": 6.06}
{"molecule": "CCc1ccc(-c2cnc(N)cn2)c(F)c1Oc1ncccn1", "note": "[Example 316, 5-[4-Ethyl-2-fluoro-3-(pyrimidin-2-yloxy)phenyl]pyrazin-2-amine]", "pKi": 5.86}
{"molecule": "Nc1cnc(-c2ccc(C3CCCCC3)c(Oc3ncccn3)c2F)cn1", "note": "[Example 320, 5-(4-Cyclohexyl-2-fluoro-3-(pyrimidin-2-yloxy)phenyl)pyrazin-2-amine]", "pKi": 7.44}
{"molecule": "CCc1ccc(-c2cnc(N)cn2)c(F)c1O", "note": "[Example 333, 3-(5-Aminopyrazin-2-yl)-6-ethyl-2-fluorophenol]", "pKi": 6.38}
{"molecule": "Nc1cnc(-c2ccc(C3CCC3)c(OCc3ccc(Br)cc3)c2F)cn1", "note": "[Example 340, 5-{3-[(4-Bromobenzyl)oxy]4-cyclobutyl-2-fluorophenyl}pyrazin-2-amine]", "pKi": 6.19}
{"tested_on": "leukotriene pathway in human whole blood", "test": "Human whole blood assay (LTB4 levels after A23187 stimulation)", "assay_type": "cell-based", "conditions": "blood diluted 1:1 in RPMI, 15 min pre-incubation, A23187 7 μg/mL for 30 min at 37° Celsius, plasma LTB4", "protocol": "as §1\n(§2) An in vitro cellular assay was performed using human whole blood collected in heparin-containing tubes, which was used to test the ability of compounds to modulate the leukotriene pathway in human whole blood. The blood was diluted 1:1 in RPMI medium, pre-incubated for 15 min at 37° Celsius with test compounds at various concentrations, and then stimulated with calcium ionophore, A23187 (7 μg/mL), for 30 min at 37° Celsius. The samples were then centrifuged and plasma was removed. The plasma was diluted in assay buffer and LTB4 levels were measured using a commercial kit (Enzo Life Sciences). The concentration of each compound that was required for half-maximal inhibition (modulation) of recombinant enzyme activity (IC50) was calculated by a 4-parameter equation using the program GraphPad Prism (GraphPad software)."}
{"molecule": "2-(4-Cyclobutyl-2-fluoro-3-{[4-(trifluoromethyl)benzyl]oxy}phenyl)-5H-pyrrolo[2,3-b]pyrazine trifluoroacetate salt [Example 177]", "pIC50": 6.11}
{"molecule": "5-(4-Cyclobutyl-2-fluoro-3-hydroxyphenyl)pyridin-2-amine [Intermediate F]", "pIC50": 5.89}
{"molecule": "5-(4-Cyclobutyl-2-fluoro-3-methoxyphenyl)-1H-pyrrolo[2,3-b]pyridine [Intermediate I]", "pIC50": 5.78}
{"tested_on": "leukotriene pathway in human whole blood", "test": "Human whole blood assay (LTB4 levels after A23187 stimulation)", "assay_type": "cell-based", "conditions": "human whole blood diluted 1:1 in RPMI, A23187 stimulation; Table 6 (additional runs)", "protocol": "as §1, §2"}
{"molecule": "2-(4-Cyclobutyl-2-fluoro-3-{[4-(trifluoromethyl)benzyl]oxy}phenyl)-5H-pyrrolo[2,3-b]pyrazine trifluoroacetate salt [Example 177]", "pIC50": 6.05}
{"molecule": "5-(4-Cyclobutyl-2-fluoro-3-methoxyphenyl)-1H-pyrrolo[2,3-b]pyridine [Intermediate I]", "pIC50": 5.78}
{"molecule": "Nc1cnc(-c2ccc(C3CCC3)c(OCC(O)Cn3c(=O)[nH]c4ccccc43)c2F)cn1", "note": "(racemic) [Example 311, racemic 1-{3-[3-(5-Aminopyrazin-2-yl)-6-cyclobutyl-2-fluorophenoxy]-2-hydroxypropyl}-1,3-dihydro-2H-benzimidazol-2-one]", "pIC50": 6.58}
{"molecule": "COc1cc(Oc2c(C3CCC3)ccc(-c3cnc(N)cn3)c2F)ncn1", "note": "[Example 97, 5-{4-Cyclobutyl-2-fluoro-3-[(6-methoxypyrimidin-4-yl)oxy]phenyl}pyrazin-2-amine]", "pIC50": 6.90}
{"molecule": "Nc1cnc(-c2ccc(C3CCC3)c(Oc3cc(O)ncn3)c2F)cn1", "note": "[Example 98]", "pIC50": 6.91}
{"molecule": "Nc1cnc(-c2ccc(C3CCC3)c(Oc3ccnc(N)n3)c2F)cn1", "note": "[Example 130, 4-[3-(5-Aminopyrazin-2-yl)-6-cyclobutyl-2-fluorophenoxy]pyrimidin-2-amine]", "pIC50": 7.67}
{"molecule": "NC(=O)c1ccc(Oc2c(C3CCC3)ccc(-c3cnc(N)cn3)c2F)cc1", "note": "[Example 155, 4-[3-(5-Aminopyrazin-2-yl)-6-cyclobutyl-2-fluorophenoxy]benzamide]", "pIC50": 6.89}
{"molecule": "CC(C)(C)c1ccc(-c2cnc(N)nc2)c(F)c1Oc1cc(N)ncn1", "note": "[Example 208, 5-{3-[(6-Aminopyrimidin-4-yl)oxy]-4-tert-butyl-2-fluorophenyl}pyrimidin-2-amine]", "pIC50": 6.79}
{"molecule": "N#CCOc1c(C2CCC2)ccc(-c2cnc(N)cn2)c1F", "note": "[Example 276, [3-(5-Aminopyrazin-2-yl)-6-cyclobutyl-2-fluorophenoxy]acetonitrile]", "pIC50": 5.73}
{"molecule": "Nc1cnc(-c2ccc(C3CCC3)c(Oc3cccnn3)c2F)cn1", "note": "[Example 277, 5-[4-Cyclobutyl-2-fluoro-3-(pyridazin-3-yloxy)phenyl]pyrazin-2-amine]", "pIC50": 6.72}
{"molecule": "Nc1cnc(-c2ccc(C3CC3)c(Oc3nccc(N)n3)c2F)cn1", "note": "[Example 279, 2-[3-(5-Aminopyrazin-2-yl)-6-cyclopropyl-2-fluorophenoxy]pyrimidin-4-amine]", "pIC50": 6.94}
{"molecule": "COC(=O)c1coc(COc2c(C3CCC3)ccc(-c3cnc(N)cn3)c2F)n1", "note": "[Example 281, Methyl 2-{[3-(5-aminopyrazin-2-yl)-6-cyclobutyl-2-fluorophenoxy]methyl}-1,3-oxazole-4-carboxylate trifluoroacetic acid salt]", "pIC50": 6.34}
{"molecule": "Nc1cnc(-c2ccc(C3CCC3)c(OCc3nc4ccccc4s3)c2F)cn1", "note": "[Example 283, 5-[3-(1,3-Benzothiazol-2-ylmethoxy)-4-cyclobutyl-2-fluorophenyl]pyrazin-2-amine trifluoroacetic acid salt]", "pIC50": 6.27}
{"molecule": "Nc1cnc(-c2ccc(C3CCC3)c(OCCN3C(=O)c4ccccc4C3=O)c2F)cn1", "note": "[Example 293, 2-{2-[3-(5-Aminopyrazin-2-yl)-6-cyclobutyl-2-fluorophenoxy]ethyl}-1H-isoindole-1,3(2H)-dione]", "pIC50": 7.00}
{"molecule": "Nc1cnc(-c2ccc(C3CCC3)c(OCCNc3cnccn3)c2F)cn1", "note": "[Example 295, 5-{4-Cyclobutyl-2-fluoro-3-[2-(pyrazin-2-ylamino)ethoxy]phenyl}pyrazin-2-amine trifluoroacetic acid salt]", "pIC50": 6.73}
{"molecule": "Nc1cnc(-c2ccc(C3CCC3)c(OCCNc3ncccn3)c2F)cn1", "note": "[Example 296, N-{2-[3-(5-Aminopyrazin-2-yl)-6-cyclobutyl-2-fluorophenoxy]ethyl}pyrimidin-2-amine trifluoroacetic acid salt]", "pIC50": 6.55}
